Results: ChEMBL document CHEMBL1697781, “Assessment of the health effects of chemicals in humans: II. Construction of an adverse effects database for QSAR modeling” (Curr Drug Discov Technol, 2004)

Columns and labels:
Settings in all cases: human; call rule not given here
[1] = test system: Hepatotoxicity; assay: FDA HLAED, liver enzyme composite activity
[2] = test system: Hepatotoxicity; assay: FDA HLAED, alkaline phosphatase increase
[3] = test system: Hepatotoxicity; assay: FDA HLAED, serum glutamic oxaloacetic transaminase (SGOT) increase
[4] = test system: Hepatotoxicity; assay: FDA HLAED, serum glutamic pyruvic transaminase (SGPT) increase
[5] = test system: Hepatotoxicity; assay: FDA HLAED, lactate dehydrogenase (LDH) increase
[6] = test system: Hepatotoxicity; assay: FDA HLAED, gamma-glutamyl transferase (GGT) increase
Throughout, for GGT Increase - Index Value: reference of the scale not given here.
Throughout, for LDH Increase - Index Value: reference of the scale not given here.

| Compound | Composite Activity - Active [1] | Composite Activity - Marginal [1] | Composite Activity - Score [1] | Alkaline Phosphatase Increase - Activity Score [2] | Alkaline Phosphatase Increase - Index Value [2] | Alkaline Phosphatase Increase - Number of Reports [2] | SGOT Increase - Activity Score [3] | SGOT Increase - Index Value [3] | SGOT Increase - Number of Reports [3] | SGPT Increase - Activity Score [4] | SGPT Increase - Index Value [4] | SGPT Increase - Number of Reports [4] | LDH Increase - Activity Score [5] | LDH Increase - Index Value [5] | LDH Increase - Number of Reports [5] | GGT Increase - Activity Score [6] | GGT Increase - Index Value [6] | GGT Increase - Number of Reports [6] | further results |
| --- | --- | --- | --- | --- | --- | --- | --- | --- | --- | --- | --- | --- | --- | --- | --- | --- | --- | --- | --- |
| COc1cc(C(=O)NS(=O)(=O)c2ccccc2C)ccc1Cc1cn(C)c2ccc(NC(=O)OC3CCCC3)cc12 [ZAFIRLUKAST] | 2 | 1 | Active | Inactive | 2.6 | >= 4 | Active | 10.1 | >= 4 | Active | 9.5 | >= 4 | Marginally Active | 3.7 | >= 4 | Inactive | 0.5 | < 4 |  |
| Nc1ccn([C@H]2CC[C@@H](CO)O2)c(=O)n1 [ZALCITABINE] |  |  |  | Inactive | 2.9 | < 4 | Active | 5.7 | >= 4 | Inactive | 2.9 | < 4 | Inactive | 1.4 | < 4 | Inactive | 1.4 | < 4 | Composite Activity - Active ([1]; Liver): 1; Composite Activity - Marginal ([1]; Liver): 0; Composite Activity - Score ([1]; Liver): Inactive |
| Cc1cn([C@H]2C[C@H](N=[N+]=[N-])[C@@H](CO)O2)c(=O)[nH]c1=O [ZIDOVUDINE] | 4 | 0 | Active | Active | 5.1 | >= 4 | Active | 12.7 | >= 4 | Active | 4.8 | >= 4 | Active | 5.7 | >= 4 | Inactive | 0.9 | < 4 |  |
| CC(c1cc2ccccc2s1)N(O)C(N)=O (stereo unspecified) [ZILEUTON] | 3 | 0 | Active | Active | 29.7 | >= 4 | Active | 47.5 | >= 4 | Active | 65.3 | >= 4 | Inactive | 11.9 | < 4 | Inactive | 5.9 | < 4 |  |
| Cc1ccc(-c2nc3ccc(C)cn3c2CC(=O)N(C)C)cc1 [ZOLPIDEM] | 0 | 4 | Marginally Active | Marginally Active | 3 | >= 4 | Marginally Active | 3.8 | >= 4 | Marginally Active | 3.9 | >= 4 | Inactive | 0.7 | >= 4 | Marginally Active | 3 | >= 4 |  |
| Cc1cc(CC(=O)O)n(C)c1C(=O)c1ccc(Cl)cc1 [ZOMEPIRAC] | 0 | 0 | Inactive | Inactive | 1.1 | >= 4 | Inactive | 1.1 | >= 4 | Inactive | 0.7 | >= 4 | Inactive | 0.7 | >= 4 | Inactive | 0 | < 4 |  |
| NYSTATIN | 0 | 0 | Inactive | Inactive | 0.3 | < 4 | Inactive | 0 | < 4 | Inactive | 0 | < 4 | Inactive | 0 | < 4 | Inactive | 0 | < 4 |  |
